Results: patent US20080299638A1 (priority 2004, published 2008)
Values after ≈ are worked out from the molar mass of the structure shown. Values joined by “and” are separate entries in the source; they are usually repeats but may differ in a detail not shown here. Identical values can stand only once.

What was measured:
[1] = tested on: HBeAg; experiment: Suppression of HBeAg secretion in 2.2.15 cells (radioimmunoassay, cpm); format: cell-based, hepatitis B virus
Experimental: (§1) Grow 200000 cells/ml 2.2.15 cell on 24-well plate, 1 ml per well, incubate for 24 hours under 5% CO2 at 37° C. […] 4 wells per concentration, incubate under 5% CO2 at 37° C., change drug solution every 4 days with the same concentration, retrieve culture medium at day 8, preserve at −20° C. Repeat experiment for 2 batches, test for HBsAg and HBeAg separately. Check cpm value for each wells using γ-counter.
(§2) Calculating drug effectiveness: calculate the mean and standard deviation of cpm from the cell control group and groups with different drug concentration, P/N value and percent suppression, IC50 and SI. • (1)
(§3) [formula] • (2) Calculate IC50 for drug suppression of antigen:
(§4) [formula] • (4) Calculate the cpm differences between HBsAg and HBeAg in different dilutions and control groups by t-test.

[2] = tested on: HBsAg; experiment: Suppression of HBsAg secretion in 2.2.15 cells (radioimmunoassay, cpm); format: cell-based, hepatitis B virus
Experimental: as §1, §2, §3, §4

[3] = tested on: HBV-DNA in supernatant of 2.2.15 cell culture; experiment: HBV-DNA dot blot in supernatant of 2.2.15 cell culture; format: cell-based, hepatitis B virus; details: day 8; for HBV-DNA in cell culture supernatant, CPM: control 3808.34
Experimental: Extraction of HBV-DNA from 2.2.15 cells supernatant: Grow 200000 cells/ml 2.2.15 cell on 24-well plate, 1 ml per well, add drugs after 24 hours incubation, change drug solution every 4 days with the same concentration, collect supernatant from cell culture after 8 days of incubation counted from the day drugs added into the culture, precipitate with polyethylene glycol, digest with proteinase K, extract with phenol:chloroform:isopentanol, nucleic acid precipitation by absolute ethanol and so on procedures, vacuum dry, re-dissolve in TE buffer as sample.
Dot blot: place dots: take 20 μl sample (contains 25 μg DNA), denature, neutralize, serial dilute 20×SSC buffer to 1:8 dilution on nitrocellulose membrane, oven dry, pre-hybridize, hybridize, wash membrane, radioactive self exposure and so on procedures. Develop X ray film with conventional method. Scan developed film with scanner, measure density with gel-pro software, calculate suppression rate and IC50.

[4] = tested on: 2.2.15 cells; experiment: Arginase toxicity to cells (CPE method, Reed-Muench); format: cell-based, human; details: 8 days drug addition
Experimental: Divide experiment into control group and test groups with different drug concentration. Digest cells, dilute to 200,000 cells/ml, transfer to culture plate, 100 μl per well for 96-well plate, incubate for 24 hours under 5% CO2 at 37° C., ready for experiment when cells grown into monolayer. […] Observe cytopathological changes, 8 days or 4 days under microscope, totally destroyed is 4; 75% destroyed is 3; 50% destroyed is 2, 25% destroyed is 1; no changes is 0. Calculate TC50 and TC0 according to Reed-Muench Method:
A=log>50% drug concentration; B=log<50% drug concentration; C=log times of dilution
Starting from 40 IU/ml and subsequently 20, 10, 5, 2.5 IU/ml, change drug solution every 4 days until 8 days, observe cytopathological changes under microscope, and check for CPE with microscope.

[5] = Lamivudine 50 μg/ml, batch 1, day 8
[6] = Lamivudine 50 μg/ml, batch 2, day 8
[7] = Lamivudine 50 μg/ml, two batches average, day 8
[8] = Lamivudine 50 μg/ml, two batches average, day 8, listed as lamivudine
[9] = Lamivudine 100 μg/ml, batch 1, day 8
[10] = Lamivudine 100 μg/ml, batch 2, day 8
[11] = Lamivudine 100 μg/ml, two batches average, day 8
[12] = Lamivudine 100 μg/ml, two batches average, day 8, listed as lamivudine
[13] = Lamivudine 200 μg/ml, batch 1, day 8
[14] = Lamivudine 200 μg/ml, batch 2, day 8
[15] = Lamivudine 200 μg/ml, two batches average, day 8
[16] = Lamivudine 200 μg/ml, two batches average, day 8, listed as lamivudine
[17] = Lamivudine 400 μg/ml, batch 1, day 8
[18] = Lamivudine 400 μg/ml, batch 2, day 8
[19] = Lamivudine 400 μg/ml, two batches average, day 8
[20] = Lamivudine 400 μg/ml, two batches average, day 8, listed as lamivudine
[21] = Lamivudine 800 μg/ml, batch 1, day 8
[22] = Lamivudine 800 μg/ml, batch 2, day 8
[23] = Lamivudine 800 μg/ml, two batches average, day 8
[24] = Lamivudine 800 μg/ml, two batches average, day 8, listed as lamivudine

Nc1ccn([C@@H]2CS[C@H](CO)O2)c(=O)n1 [Lamivudine, lamivudine, reference compound]
IC50 ([1]; Hepatitis B virus, 192 h, read-out: HBeAg IC50): > 800 µg/mL | HBeAg (CPM) % suppression [1, 5]: 13.20% | HBeAg (CPM) % suppression [1, 6]: 14.99% | HBeAg (CPM) % suppression [1, 7]: 14.10 ± 1.27% | HBeAg (CPM) % suppression [1, 8]: 14.10±1.27% | HBeAg (CPM) % suppression [1, 9]: 17.48% | HBeAg (CPM) % suppression [1, 10]: 14.19% | HBeAg (CPM) % suppression [1, 11]: 15.84 ± 2.33% | HBeAg (CPM) % suppression [1, 12]: 15.84±2.33% | HBeAg (CPM) % suppression [1, 13]: 16.35% | HBeAg (CPM) % suppression [1, 14]: 19.31% | HBeAg (CPM) % suppression [1, 15]: 17.83 ± 2.09% | HBeAg (CPM) % suppression [1, 16]: 17.83±2.09% | HBeAg (CPM) % suppression [1, 17]: 12.67% | HBeAg (CPM) % suppression [1, 18]: 13.32% | HBeAg (CPM) % suppression [1, 19]: 12.99 ± 0.46% | HBeAg (CPM) % suppression [1, 20]: 12.99±0.46% | HBeAg (CPM) % suppression [1, 21]: 6.10% | HBeAg (CPM) % suppression [1, 22]: 10.37% | HBeAg (CPM) % suppression [1, 23]: 8.23 ± 3.02% | HBeAg (CPM) % suppression [1, 24]: 8.23±3.02% | HBeAg IC50 ([1]; batch 1, day 8): >800 µg/mL | HBeAg IC50 ([1]; two batches average, day 8): >800 ± 0 TC0 800 μg/ml and >800 μg/ml | IC50 ([2]; Hepatitis B virus, 192 h, read-out: HBsAg IC50): > 800 µg/mL | HBsAg (CPM) % suppression [2, 5]: 6.24% | HBsAg (CPM) % suppression [2, 6]: 0.65% | HBsAg (CPM) % suppression [2, 7]: 3.45 ± 3.95% | HBsAg (CPM) % suppression [2, 8]: 3.45±3.95% | HBsAg (CPM) % suppression [2, 9]: 12.05% | HBsAg (CPM) % suppression [2, 10]: 5.15% | HBsAg (CPM) % suppression [2, 11]: 8.6 ± 4.88% | HBsAg (CPM) % suppression [2, 12]: 8.60±4.88% | HBsAg (CPM) % suppression [2, 13]: 2.35% | HBsAg (CPM) % suppression [2, 14]: 8.99% | HBsAg (CPM) % suppression [2, 15]: 5.67 ± 4.7% | HBsAg (CPM) % suppression [2, 16]: 5.67±4.70% | HBsAg (CPM) % suppression [2, 17]: 8.10% | HBsAg (CPM) % suppression [2, 18]: 0% | HBsAg (CPM) % suppression [2, 19]: 4.05 ± 5.73% | HBsAg (CPM) % suppression [2, 20]: 4.05±5.73% | HBsAg (CPM) % suppression [2, 21]: 0% | HBsAg (CPM) % suppression [2, 22]: 9.299% | HBsAg (CPM) % suppression [2, 23]: 4.65 ± 6.58% | HBsAg (CPM) % suppression [2, 24]: 4.65±6.58% | HBsAg IC50 ([2]; batch 1, day 8): >800 µg/mL | HBsAg IC50 ([2]; two batches average, day 8): >800 ± 0 TC0 μg/ml and >800 μg/ml | IC50 ([3]; Hepatitis B virus, 192 h, first batch experiment): 114 µg/mL (≈ 0.496 mM) | % suppression of HBV-DNA in cell culture supernatant ([3]; Lamivudine 50 μg/ml): 25.6576% | HBV-DNA in cell culture supernatant, CPM ([3]; Lamivudine 50 μg/ml): 2831.21 CPM | % suppression of HBV-DNA in cell culture supernatant ([3]; Lamivudine 100 μg/ml): 61.5237% | HBV-DNA in cell culture supernatant, CPM ([3]; Lamivudine 100 μg/ml): 1465.31 CPM | % suppression of HBV-DNA in cell culture supernatant ([3]; Lamivudine 200 μg/ml): 71.6404% | HBV-DNA in cell culture supernatant, CPM ([3]; Lamivudine 200 μg/ml): 1080.03 CPM | % suppression of HBV-DNA in cell culture supernatant ([3]; Lamivudine 400 μg/ml): 79.1083% | HBV-DNA in cell culture supernatant, CPM ([3]; Lamivudine 400 μg/ml): 795.628 CPM | % suppression of HBV-DNA in cell culture supernatant ([3]; Lamivudine 800 μg/ml): 82.5905% | HBV-DNA in cell culture supernatant, CPM ([3]; Lamivudine 800 μg/ml): 663.013 CPM | TC0 [4]: 800 ± 0 µg/mL | TC50 [4]: 1198.97 µg/mL (≈ 5.23 mM) | TC0 ([4]; listed as lamivudine): 800 ± 0 µg/mL | TC50 ([4]; listed as lamivudine): 1198.97 ± 97.50 µg/mL and 1198.97 µg/mL
